Consider 16 compounds from patent US12281121B2, “N-containing heteroaryl derivative and pharmaceutical composition comprising same as active ingredient for prevention or treatment of cancer” (VORONOI Inc., priority 2019, dated 2025).

The subject of experiment [1] is Ba/F3 KIF5B-RET (V804M) cells. Briefly: Cell proliferation inhibition, CellTiter-Glo. The experiment is classed as cell-based. The note with it: Mus musculus, BaF3, 72 hours. On the procedure:
(§1) Among lung cancer cell lines, which express RET fusion genes, LC-2/ad cells were cultured after adding 10% FBS (HyClone) to RPMI:F12 (1:1) (Invitrogen), and F-12 (Invitrogen) supplemented with 10% FBS was used for TT cells. RPMI-1640 supplemented with 10% FBS and 5 ng/ml IL-3 (R&D Systems) was used for Ba/F3 cells. Transduced Ba/F3 cells were cultured by adding 1 ug/ml puromycin (Invitrogen) to the same medium. 24 hours before cells were treated with the compound, 3000 to 5000 cells were aliquoted into each well of a white clear bottom 96 well plate (Corning). The compound was diluted in DMSO (3-fold dilution, a total of 12 concentrations) and the compound was injected by 0.5 μl such that the final concentration was 0.3 nM to 50 μM. For the measurement of living cells, 72 hours after the compound treatment, the cells were stored at room temperature for 10 minutes using a CellTiter-Glo luminescent cell-viability agent (Promega), and then the luminescence intensity was measured using a reader (SynergyNeo, Biotek). Each experiment was repeated in triplicate. The result value was calculated by the cell growth ratio (%) compared to the control. A graph was drawn using the GraphPad Prism version 5.0 program, and a GI50 (nM) value was calculated.
(§2) In the cell assay column, LC-2/ad (with CCDC6-RET gene) is a lung cancer cell line, a TT cell line ([…]) is a thyroid cancer cell line, Ba/F3 CCDC6-RET (WT), Ba/F3 KIF5B-RET (WT), and Ba/F3 KIF5B-RET (V804M) are cells in which disease-related traits (CCDC6-RET, KIF5B-RET, and KIF5B-RET (V804M)) are introduced into Ba/F3 cells, and Ba/F3 (naive) is a cell which is not transduced.
On the technique in general: Cellular ATP, detected with luciferase, serves as a proxy for viable cell number.

Experiment [2] relates to Ba/F3 CCDC6-RET (WT) cells. In words: Cell proliferation inhibition, CellTiter-Glo. It counts as cell-based. The note with it: BaF3/CCDC6-RET, 72 hours. As to the method: as §1, §2
The test system of the next experiment is Ba/F3 (naive) cells. In words: Cell proliferation inhibition, CellTiter-Glo. It counts as cell-based. The note with it: Mus musculus, BaF3; Ba/F3 not transduced, 72 hours. On the procedure:
as §1, §2

Experiment [3] has as its system Ba/F3 KIF5B-RET (WT) cells. Briefly: Cell proliferation inhibition, CellTiter-Glo. It counts as cell-based. The note with it: Mus musculus, BaF3, 72 hours. On the procedure: as §1, §2
For the next experiment, the target named is T1, RET (WT) (Homo sapiens, UniProt P07949).
T1 construct: human RET (658-end, SIGNALCHEM); purchased SIGNALCHEM
T1 sequence (P07949 658-1114 limits assumed): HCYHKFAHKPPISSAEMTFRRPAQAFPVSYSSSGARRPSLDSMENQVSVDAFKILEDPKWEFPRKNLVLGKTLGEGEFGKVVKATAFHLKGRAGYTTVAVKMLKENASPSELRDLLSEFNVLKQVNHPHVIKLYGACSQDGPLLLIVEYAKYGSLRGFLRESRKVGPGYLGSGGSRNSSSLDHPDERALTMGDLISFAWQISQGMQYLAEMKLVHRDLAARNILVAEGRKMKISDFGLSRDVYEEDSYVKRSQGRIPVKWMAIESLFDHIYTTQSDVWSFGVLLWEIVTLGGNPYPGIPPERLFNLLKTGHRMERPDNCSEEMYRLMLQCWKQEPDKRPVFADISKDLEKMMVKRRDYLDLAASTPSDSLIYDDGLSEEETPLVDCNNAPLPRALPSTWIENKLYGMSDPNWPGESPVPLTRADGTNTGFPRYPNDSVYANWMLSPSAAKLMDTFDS
In words: RET enzyme inhibitory ability, ADP-Glo kinase assay. The note with it: ATP 10 μM, 25° C., 1 hour. The experiment is classed as biochemical. As to the method:
The Example compound was reacted with a purified human RET (658-end, SIGNALCHEM) enzyme to evaluate the enzyme inhibitory ability by the following method. As a reaction buffer, a composition of 40 mM Tris-HCl pH 7.4, 20 mM MgCl2, 0.5 mg/mL BSA, and 50 μM DTT was used, and all experimental materials were reacted on the reaction buffer. After the human RET (658-end, 0.8 ng) enzyme was reacted with purified ATP (10 μM) and a specific substrate solution at 25° C. for 1 hour during the experiment, the enzyme activity was confirmed using in vitro ADP-Glo™ kinase assay (Promega). Luminescence was measured by reacting the enzyme activity reaction solution, the ADP-Glo reaction solution, and the enzyme activity detection solution at a ratio of 2:2:1. The degree of inhibition of enzyme activity according to the treatment concentration of each compound was calculated based on the […] of the enzyme activity of a solvent control group in which a compound was not treated, and in this case, the concentration of each compound which suppresses the […] enzyme activity by 50% was determined as an IC50 (nM) value. The IC50 (nM) of each compound was determined by 3 datasets and obtained using Prism (version 7.01, GraphPad) software.
In the enzyme assay column, RET (WT) is a non-mutated form, RET (V804M) is a mutated form in which the V amino acid at position 804 of the RET is substituted with M, and CCDC6-RET is a form in which the RET (WT) gene and CCDC6 gene are fused.
(In ADP-Glo the light output rises with the ADP produced.)

Take `COc1ccc(CN2C(C)CN(c3ccc(-c4nc(Nc5cc(C)[nH]n5)c5ccccc5n4)cn3)C[C@H]2C)cn1` (stereo in doubt) [Example 35, 2-(6-((3R,5S)-4-((6-methoxy-pyridin-3-yl)methyl)-3,5-dimethyl-piperazin-1-yl)pyridin-3-yl)-N-(5-methyl-1H-pyrazol-3-yl)quinazolin-4-amine]: the GI50 (commonly the concentration giving 50% growth inhibition) in experiment [1] stood at 328 nM.

Take `Cc1cc(Nc2nc(-c3ccc(N4CC5CC(C4)N5Cc4ncc(C)s4)nc3)nc3ccccc23)n[nH]1` [Example 5, N-(5-methyl-1H-pyrazol-3-yl)-2-(6-(6-((5-methylthiazol-2-yl)methyl)-3,6-diazabicyclo [3.1.1]heptan-3-yl)pyridin-3-yl)quinazolin-4-amine]: the GI50 in experiment [2] is 41 nM; in experiment [1] it was 4 nM; with Ba/F3 (naive) cells it was 1060 nM; in experiment [3], 7 nM. Further, on RET (WT), half-maximal inhibition (IC50) was put at 18 nM.

Regarding `COc1ccc(CN2CC3CC(C2)N3c2ccc(-c3nc(Nc4cc(C)[nH]n4)c4ccccc4n3)cn2)cn1` [Example 6, 2-(6-(3-((6-methoxypyridin-3-yl)methyl)-3,6-diazabicyclo [3.1.1]heptan-6-yl)pyridin-3-yl)-N-(5-methyl-1H-pyrazol-3-yl)quinazolin-4-amine], the GI50 in experiment [2] was 166 nM; in experiment [1], 70 nM; in the experiment on Ba/F3 (naive) cells, 9220 nM; in experiment [3] it was 67 nM. Also, on RET (WT), inhibition was half-maximal at 27 nM (IC50).

Take `Cc1cc(Nc2nc(-c3ccc(N4CC5CC(C4)N5Cc4ccc(C(F)(F)F)nc4)nc3)nc3ccccc23)n[nH]1` [Example 8, N-(5-methyl-1H-pyrazol-3-yl)-2-(6-(6-((6-(tri-fluoromethyl)py-ridin-3-yl)meth-yl)-3,6-diaza-bicyclo[3.1.1]heptan-3-yl)pyridin-3-yl)quinazolin-4-amine]: the GI50 in experiment [2] is 51 nM; in experiment [1], 23 nM; in the experiment with Ba/F3 (naive) cells, 1980 nM; in experiment [3] it was 12 nM. Further, 32 nM corresponded to half-maximal inhibition against RET (WT) (IC50).

Turning to `Cc1cc(Nc2nc(-c3ccc(N4CC5CC(C4)N5Cc4ccc(C#N)nc4)nc3)nc3ccccc23)n[nH]1` [Example 9, 5-((3-(5-(4-((5-methyl-1H-py-razol-3-yl)amino)quinazolin-2-yl)pyridin-2-yl)-3,6-diazabicyclo [3.1.1]heptan-6-yl)methyl)pico-linonitrile], the concentration for 50% growth inhibition (GI50) in experiment [2] was determined as 62 nM; in experiment [1], 23 nM; in the experiment with Ba/F3 (naive) cells it was 822 nM; in experiment [3] it was 23 nM. Besides, half-maximal inhibition at RET (WT) (IC50) was put at 30 nM.

Regarding `Cc1ccc(CN2C3CC2CN(c2ccc(-c4nc(Nc5cc(C)[nH]n5)c5ccccc5n4)cn2)C3)cn1` [Example 10], the GI50 in experiment [2] was found to be 39 nM; in experiment [1] it was 10 nM; in the experiment on Ba/F3 (naive) cells it was 920 nM; in experiment [3], 9 nM. For the same compound, at RET (WT), half-maximal inhibition (IC50) required 10 nM.

For the compound `Cc1cc(Nc2nc(-c3ccc(N4CC5CC(C4)N5Cc4cc(F)c(OC(C)C)c(F)c4)nc3)nc3ccccc23)n[nH]1` [Example 11, 2-(6-(6-(3,5-difluoro-4-isopropoxy-benzyl)-3,6-diazabicyclo [3.1.1]heptan-3-yl)pyridin-3-yl)-N-(5-methyl-1H-pyrazol-3-yl)quinazolin-4-amine], in experiment [1], the GI50 turned out to be 119 nM.

Take `COc1ccc(CN2C3CC2CN(c2ccc(-c4nc(Nc5cc(C)[nH]n5)c5ccccc5n4)cn2)C3)cc1C#N` [Example 12, 2-methoxy-5-((3-(5-(4-((5-methyl-1H-pyrazol-3-yl)amino)quina-zolin-2-yl)pyridin-2-yl)-3,6-diazabicyclo [3.1.1]heptan-6-yl)methyl)benzo-nitrile]: the GI50 in experiment [2] was 52 nM; in experiment [1], 49 nM; in the experiment with Ba/F3 (naive) cells it was 2540 nM; in experiment [3], 15 nM. Also, the IC50 (as a rule, the midpoint of a concentration-inhibition curve) at RET (WT) came out at 38 nM.

As to `Cc1cc(Nc2nc(-c3ccc(N4CC5CC(C4)N5Cc4cnc[nH]4)nc3)nc3ccccc23)n[nH]1` [Example 13, 2-(6-(6-((1H-imidazol-5-yl)methyl)-3,6-diazabicyclo [3.1.1]heptan-3-yl)pyridin-3-yl)-N-(5-methyl-1H-pyrazol-3-yl)quinazolin-4-amine], the GI50 in experiment [1] is 2450 nM.

On to `COc1ccc(CN2C3CC2CN(c2ccc(-c4nc(Nc5cc(C)[nH]n5)c5ccccc5n4)cn2)C3)cc1` [Example 14, 2-(6-(6-(4-methoxybenzyl)-3,6-diaza-bicyclo[3.1.1]heptan-3-yl)pyridin-3-yl)-N-(5-methyl-1H-pyrazol-3-yl)quinazolin-4-amine], for which the concentration for 50% growth inhibition (GI50) in experiment [2] is 33 nM; in experiment [1], 22 nM; in the experiment on Ba/F3 (naive) cells, 2700 nM; in experiment [3] it was 11 nM. This compound also displayed an IC50 against RET (WT) of 10 nM.

Regarding `Cc1cc(Nc2nc(-c3ccc(N4CC5CC(C4)N5Cc4ccc(OC(C)C)nc4)nc3)nc3ccccc23)n[nH]1` [Example 15, 2-(6-(6-((6-iso-propoxypyridin-3-yl)methyl)-3,6-diazabicyclo [3.1.1]heptan-3-yl)pyridin-3-yl)-N-(5-methyl-1H-pyrazol-3-yl)quinazolin-4-amine], the GI50 came out at 75 nM in experiment [2], 30 nM in experiment [1], 3100 nM in the experiment with Ba/F3 (naive) cells and 24 nM in experiment [3]. At RET (WT), this compound displayed a 50% inhibitory concentration (IC50) of 40 nM.

On to `Cc1cc(Nc2nc(-c3ccc(N4CC5CC(C4)N5Cc4ccc(NS(C)(=O)=O)cc4)nc3)nc3ccccc23)n[nH]1` [Example 21, N-(4-((3-(5-(4-((5-methyl-1H-pyrazol-3-yl)a-mino)quinazolin-2-yl)pyridin-2-yl)-3,6-diazabicyclo [3.1.1]heptan-6-yl)methyl)phenyl) methane-sulfonamide], for which the concentration for 50% growth inhibition (GI50) in experiment [1] was determined as 117 nM.

Consider `Cc1cc(Nc2nc(-c3ccc(N4CC5CC(C4)N5Cc4ccn(C)c(=O)c4)nc3)nc3ccccc23)n[nH]1` [Example 27, 1-methyl-4-((3-(5-(4-((5-methyl-1H-pyrazol-3-yl)amino)quina-zolin-2-yl)pyridin-2-yl)-3,6-diazabicyclo [3.1.1]heptan-6-yl)methyl)pyri-din-2(1H)-one], for which, in experiment [1], the 50% growth inhibitory concentration (GI50) worked out at 159 nM.

As for `COc1ccc(CN2C[C@H](C)N(c3ccc(-c4nc(Nc5cc(C)[nH]n5)c5ccccc5n4)cn3)C[C@H]2C)cn1` [Example 28, 2-(6-((2S,5R)-4-((6-methoxy-pyridin-3-yl)methyl)-2,5-di-methylpiperazin-1-yl)pyridin-3-yl)-N-(5-methyl-1H-pyrazol-3-yl)quinazolin-4-amine], the GI50 in experiment [1] worked out at 321 nM.

`COc1ccc(CN2C[C@@H](C)N(c3ccc(-c4nc(Nc5cc(C)[nH]n5)c5ccccc5n4)cn3)C[C@@H]2C)cn1` [Example 32]: the GI50 in experiment [1] amounted to 239 nM.

For the compound `COc1ccc(CN2CCN(c3ccc(-c4nc(Nc5cc(C)[nH]n5)c5ccccc5n4)cn3)C[C@@H]2C)cn1` [Example 33, (S)-2-(6-(4-((6-methoxypyridin-3-yl)methyl)-3-methylpiperazin-1-yl)pyridin-3-yl)-N-(5-methyl-1H-pyrazol-3-yl)quinazolin-4-amine], the GI50 in experiment [1] was determined as 121 nM.
